Earlier results as cited in patent US20040142049A1, “Compositions having tnf production inhibitory effect and tnf production inhibitors” (priority 2001, published 2004).

Test system: TNF
Conditions: background art, prior publications

COc1cc(/C=C/C(=O)CC(=O)/C=C/c2ccc(O)c(OC)c2)ccc1O [curcumin]
TNF production inhibitory effect (in words): has a TNF production inhibitory effect
